Results from article PMC6891325, “The Synthesis, Characterization, Cytotoxic Activity Assessment and Structure-Activity Relationship of 4-Aryl-6-(2,5-dichlorothiophen-3-yl)-2-methoxypyridine-3-carbonitriles” (Molecules, 2019).

Assays:
MDA-MB-231 = assay: MTT cytotoxicity assay, MDA-MB-231 breast cancer cells; format: cell-based, human; conditions: for IC50: Homo sapiens, MDA-MB-231 breast cancer cells, MTT; for SI (MDA-MB-231): selectivity index relative to normal human fibroblasts HSF1184
Experimental: (§1) Three different cancer cell lines; namely, DU145 derived from prostate cancer cells (American Type Culture Collection No. HTB-81), HepG2 derived from human liver cancer cells (American Type Culture Collection No. HB-8065), MBA-MB-231 derived from breast cancer cells (American Type Culture Collection No. HTB-26) and normal human fibroblasts (HSF1184) were grown and cultivated according to our previously described method. Briefly, cells were seeded in Dulbecco′s modified Eagle’s media (DMEM) supplemented with 10% heat-inactivated fetal bovine serum (FBS), 100 IU/mL penicillin, […] and 2 mM glutamine. The cells were maintained in a humidified atmosphere with 5% CO2 at 37 °C for 8 days, with subsequent media renewal. Then, cells were plated in a 96-well flat bottom plate at a concentration of 10^4 cells/well in fresh complete growth medium for 24 h and maintained in 37 °C in a 5% CO2-humidified incubator.
(§2) Cells in 96-well flat bottom plates were first serum-starved for 4 h by replacing cultured media with fresh medium (without serum). All synthesized compounds were properly dissolved in dimethyl sulfoxide (DMSO) to produce a stock concentration of 0.1 M. Cells were incubated with a range of different concentrations of the compounds we were testing (0–1000 μM) to give a final volume of 300 µL per well. In comparison, cells were incubated either alone with DMSO (negative control) or with 5-fluorouracil as a positive control. DMSO was used as a vehicle for the dissolution of the tested compounds and its final concentration in cultured media was less than 0.1%. Triplicate wells were designed for each individual dose. The compounds we synthesized were evaluated for in-vitro cytotoxicity properties via the standard 3-(4,5-dimethythiazol-2-yl)-2,5-diphenyl tetrazolium bromide (MTT) assay accordingly to our previously-reported work. The normal human fibroblast line (HSF1184) was used as a standard reference for the measurement of selectivity indexes (SIs) relative to cancer cell lines. The IC50 values and SIs were calculated accordingly.

HSF1184 = assay: MTT cytotoxicity assay, normal human fibroblasts HSF1184; format: cell-based; conditions: for IC50: Fibroblast
Experimental: as §1, §2

HepG2 = assay: MTT cytotoxicity assay, HepG2 liver cancer cells; format: cell-based, human; conditions: for IC50: MTT; for SI (HepG2): selectivity index relative to normal human fibroblasts HSF1184
Experimental: as §1, §2

DU145 = assay: MTT cytotoxicity assay, DU145 prostate cancer cells; format: cell-based, human; conditions: for IC50: Homo sapiens, DU-145, DU145 prostate cancer cells, MTT; for SI (DU145): selectivity index relative to normal human fibroblasts HSF1184
Experimental: as §1, §2

[1] = system: HepG2, DU145 and MBA-MB-231 cancer cell lines; assay: MTT cytotoxicity, stated jointly for the three cancer cell lines; format: cell-based; conditions: Homo sapiens; summary statement for HepG2, DU145 and MBA-MB-231; read-out: IC50 against all three cancer cell lines
Experimental: as §1, §2

[2] = Homo sapiens, HepG2, HepG2 liver cancer cells

Row | Compound | IC50 (MDA-MB-231) | SI (MDA-MB-231) (MDA-MB-231) | IC50 (HSF1184) | IC50 (HepG2; [2]) | SI (HepG2) (HepG2) | IC50 (DU145) | SI (DU145) (DU145) | IC50 [1] | melting point | IC50 Values HSF1184 (HSF1184) | IC50 (HepG2; HepG2 liver cancer cells)
1 | O=c1[nH]cc(F)c(=O)[nH]1 [5-fluorouracil, reference compound] | 2.21 ± 0.28 µM | 83.93 | 185.5 ± 0.48 µM | 1.65 ± 0.09 µM | 112.41 | 1.92 ± 0.24 µM | 96.60 |  |  |  | 
2 | COc1nc(-c2cc(Cl)sc2Cl)cc(-c2ccccc2)c1C#N [5a, 6-(2,5-dichlorothiophen-3-yl)-2-methoxy-4-phenylpyridine-3-carbonitrile] | 21.2 ± 0.37 µM |  | 82.39 ± 0.04 µM | 49.6 ± 0.51 µM |  | > 100 µM |  | > 100 µM |  |  | 
3 | COc1nc(-c2cc(Cl)sc2Cl)cc(-c2ccc(C)cc2)c1C#N [5b, 6-(2,5-dichlorothiophen-3-yl)-2-methoxy-4-p-tolylpyridine-3-carbonitrile] | > 100 µM |  | 114.5 ± 0.38 µM | 9.48 ± 0.63 µM |  | > 100 µM |  | > 100 µM |  |  | 
4 | COc1nc(-c2cc(Cl)sc2Cl)cc(-c2ccc(Cl)cc2)c1C#N [5c, 4-(4-chlorophenyl)-6-(2,5-dichlorothiophen-3-yl)-2-methoxypyridine-3-carbonitrile] | 28.3 ± 0.42 µM | 3.26 | 92.38 ± 0.38 µM | > 100 µM |  | 42.36 ± 0.21 µM | 2.18 | > 100 µM | 195 to 196 °C |  | 
5 | COc1nc(-c2cc(Cl)sc2Cl)cc(-c2ccc(Br)cc2)c1C#N [5d, 4-(4-bromophenyl)-6-(2,5-dichlorothiophen-3-yl)-2-methoxypyridine-3-carbonitrile] | 2.59 ± 0.04 µM | 163.49 | 423.4 ± 0.49 µM | 1.53 µM | 261.39 | 3.63 ± 0.17 µM | 116.65 | 1 to 5 µM | 214 to 215 °C | high | 1.62 ± 0.15 µM
6 | COc1cccc(-c2cc(-c3cc(Cl)sc3Cl)nc(OC)c2C#N)c1 [5f, 6-(2,5-dichlorothiophen-3-yl)-2-methoxy-4-(3-methoxyphenyl)pyridine-3-carbonitrile] | 43.49 ± 0.06 µM | 2.20 | 95.49 ± 0.29 µM | 18.3 ± 0.31 µM | 5.21 | 27.4 ± 0.63 µM | 3.48 |  | 179 to 180 °C |  | 
7 | COc1nc(-c2cc(Cl)sc2Cl)cc(-c2cccc([N+](=O)[O-])c2)c1C#N [5g, 6-(2,5-dichlorothiophen-3-yl)-2-methoxy-4-(3-nitrophenyl)pyridine-3-carbonitrile] | 1.93 ± 0.03 µM |  | 135.6 ± 0.55 µM | 2.11 ± 0.26 µM |  | 4.97 ± 0.35 µM |  | 1 to 5 µM |  | high | 
8 | COc1nc(-c2cc(Cl)sc2Cl)cc(-c2ccc([N+](=O)[O-])cc2)c1C#N [5h, 6-(2,5-dichlorothiophen-3-yl)-2-methoxy-4-(4-nitrophenyl)pyridine-3-carbonitrile] | 2.14 ± 0.06 µM | 87.61 | 187.49 ± 0.14 µM | 1.53 ± 0.38 µM | 122.54 | 1.77 ± 0.38 µM | 105.93 | 1 to 5 µM | 204 to 205 °C | high | 
9 | COc1ccc(-c2cc(-c3cc(Cl)sc3Cl)nc(OC)c2C#N)cc1Br [5i, 4-(3-bromo-4-methoxyphenyl)-6-(2,5-dichlorothiophen-3-yl)-2-methoxypyridine-3-carbonitrile] | 1.38 ± 0.03 µM |  | 234.5 ± 0.27 µM | 1.53 µM |  | 1.82 ± 0.21 µM |  | 1 to 5 µM |  | high | 1.72 ± 0.42 µM
10 | COc1cc(-c2ccccc2)cc(-c2cc(Cl)sc2Cl)n1 [6a, 2-(2,5-dichlorothiophen-3-yl)-6-methoxy-4-phenylpyridine] | 15.3 ± 0.41 µM | 5.82 | 89.34 ± 0.55 µM | 32.31 ± 0.23 µM | 2.77 | 53.49 ± 0.02 µM | 1.67 |  | 127 to 128 °C |  | 
11 | COc1cc(-c2ccc(C)cc2)cc(-c2cc(Cl)sc2Cl)n1 [6b, 2-(2,5-dichlorothiophen-3-yl)-6-methoxy-4-p-tolylpyridine] | 52.39 ± 0.31 µM | 1.95 | 102.4 ± 0.3 µM | 39.5 ± 0.58 µM | 2.59 | 64.59 ± 0.08 µM | 1.59 |  | 150 to 151 °C |  | 
12 | COc1cc(-c2ccc(Cl)cc2)cc(-c2cc(Cl)sc2Cl)n1 [6c, 4-(4-chlorophenyl)-2-(2,5-dichlorothiophen-3-yl)-6-methoxypyridine] |  |  | 112.4 ± 0.47 µM | 11.3 ± 0.22 µM |  | 21.65 ± 0.12 µM |  |  |  |  | 
13 | COc1cc(-c2ccc(Br)cc2)cc(-c2cc(Cl)sc2Cl)n1 [6d, 4-(4-bromophenyl)-2-(2,5-dichlorothiophen-3-yl)-6-methoxypyridine] | 15.4 ± 0.48 µM | 6.00 | 92.55 ± 0.42 µM | 64.59 ± 0.33 µM | 1.43 | 29.4 ± 0.88 µM | 3.14 |  | 148 to 149 °C |  | 
14 | COc1cc(-c2ccccc2OC)cc(-c2cc(Cl)sc2Cl)n1 [6e, 2-(2,5-dichlorothiophen-3-yl)-6-methoxy-4-(2-methoxyphenyl)pyridine] |  |  |  |  |  |  |  |  | 135 to 136 °C |  | 
15 | COc1cccc(-c2cc(OC)nc(-c3cc(Cl)sc3Cl)c2)c1 [6f, 2-(2,5-dichlorothiophen-3-yl)-6-methoxy-4-(3-methoxyphenyl)pyridine] | 64.39 ± 0.28 µM | 1.63 | 104.8 ± 0.71 µM | 38.5 ± 0.62 µM | 2.73 | 18.45 ± 0.02 µM | 5.68 |  | 156 to 157 °C |  | 
16 | COc1cc(-c2cccc([N+](=O)[O-])c2)cc(-c2cc(Cl)sc2Cl)n1 [6g, 2-(2,5-dichlorothiophen-3-yl)-6-methoxy-4-(3-nitrophenyl)pyridine] | 18.3 ± 0.34 µM | 4.61 | 84.56 ± 0.4 µM | 39.43 ± 0.09 µM | 2.14 | 25.4 ± 0.38 µM | 3.33 |  | 182 to 183 °C |  | 
